pIC50: −log10 of the molar value.
target: PDE10 (UniProt Q9Y233); assay: PDE10 enzyme inhibition, IMAP TR-FRET assay (MPDE10A7 Enzyme Activity and Inhibition); type: biochemical; details: IC50 class against PDE10; read-out: IC50
Outline: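 IMAP TR-FRET read-out of PDE10 hydrolysis of fluorescein-cAMP or -cGMP (60 min, room temperature), after a 30 min compound-enzyme preincubation. Enzyme source was PDE10A or tissue homogenate. Averaged IC50s are reported as five range classes.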

| pIC50 | Molecule |
| --- | --- |
| 7.00 to 7.60 | CC(C)(C)OC(=O)N1CCC(CO)(c2nccnc2Oc2ccc(Nc3nc4ccccc4s3)cc2)CC1 [Example 206, tert-butyl 4-(3-(4-(benzo[d]thiazol-2-ylamino)phenoxy)pyrazin-2-yl)-4-(hydroxymethyl)piperidine-1-carboxylate] |
| 7.00 to 7.60 | COc1ncccc1-c1nccnc1Oc1ccc(Nc2nc3cc(F)ccc3s2)cc1 [Example 154, 5-fluoro-N-(4-(3-(2-methoxypyridin-3-yl)pyrazin-2-yloxy)phenyl)benzo[d]thiazol-2-amine] |
| 7.00 to 7.60 | COCC1CCN(c2nccnc2Oc2ccc(Nc3nc4ccccc4s3)cc2)CC1 [Example 87, N-(4-(3-(4-(methoxymethyl)-piperidin-1-yl)pyrazin-2-yl-oxy)phenyl)benzo[d]thiazol-2-amine] |
| 6.60 to 7.00 | O=C(c1ccc(Oc2nccnc2OCCN2CCOCC2)cc1)c1nc2ccccc2[nH]1 [Example 172, (1H-benzo[d]imidazol-2-yl)(4-(3-(2-morpholinoethoxy)pyrazin-2-yloxy)phenyl)methanone] |
| 7.00 to 7.60 | COc1ncccc1-c1nccnc1Oc1ccc(C(=O)c2nc3cc(F)ccc3[nH]2)cc1 [Example 117, (5-fluoro-1H-benzo[d]imidazol-2-yl)(4-(3-(2-methoxypyridin-3-yl)pyrazin-2-yloxy)phenyl)methanone] |
| > 7.60 | O=C(c1ccc(Oc2nccnc2C2CCOCC2)cc1)c1nc2ccccc2[nH]1 [Example 181, (1H-benzo[d]imidazol-2-yl)(4-(3-(tetrahydro-2H-pyran-4-yl)pyrazin-2-yloxy)phenyl)methanone] |
| 6.60 to 7.00 | O=C(c1ccc(Oc2nccnc2OCc2cccnc2)cc1)c1nc2ccccc2[nH]1 [Example 179, (1H-benzo[d]imidazol-2-yl)(4-(3-(pyridin-3-ylmethoxy)pyrazin-2-yloxy)phenyl)methanone] |
| > 7.60 | COc1ncccc1-c1nccnc1Oc1ccc(Nc2nc3ccccc3s2)cc1 [Example 155, N-(4-(3-(2-methoxypyridin-3-yl)pyrazin-2-yloxy)phenyl)benzo[d]thiazol-2-amine] |
| 6.00 to 6.60 | O=C(c1ccc(Oc2nccnc2OCC(F)(F)F)cc1)c1nc2ccccc2[nH]1 [Example 164] |
| > 7.60 | N#CC1(c2nccnc2Oc2ccc(Nc3nc4ccccc4s3)cc2)CCOCC1 [Example 200, 4-(3-(4-(BENZO[D]THIAZOL-2-YLAMINO)PHENOXY)PYRAZIN-2-YL)TETRAHYDRO-2H-PYRAN-4-CARBONITRILE] |
| 7.00 to 7.60 | CC1(C)C=C(c2nccnc2Oc2ccc(C(=O)c3nc4ccccc4[nH]3)cc2)C(=O)CC1 [Example 132, 2-(3-(4-(1H-benzo[d]imidazole-2-carbonyl)phenoxy)pyrazin-2-yl)-4,4-dimethylcyclohex-2-enone] |
| > 7.60 | CN(C)CC(=O)N1CCC(c2nccnc2Oc2ccc(C(=O)c3nc4ccccc4[nH]3)cc2)CC1 [Example 245, 1-(4-(3-(4-(1H-benzo[d]imidazole-2-carbonyl)phenoxy)pyrazin-2-yl)piperidin-1-yl)-2-(dimethylamino) ethanone] |
| > 7.60 | c1cncc(-c2nccnc2Oc2ccc(Nc3nc4ccccc4s3)cc2)c1 [Example 148, N-(4-(3-(pyridin-3-yl)pyrazin-2-yloxy)phenyl)benzo[d]thiazol-2-amine] |
| > 7.60 | CC1(O)CCN(c2nccnc2Oc2ccc(Nc3nc4ccccc4s3)cc2)CC1 [Example 60, 1-(3-(4-(BENZO[D]THIAZOL-2-YLAMINO)PHENOXY)PYRAZIN-2-YL)-4-METHYLPIPERIDIN-4-OL] |
| > 7.60 | CN1CCC(c2nccnc2Oc2ccc(C(=O)c3nc4ccccc4[nH]3)cc2)CC1=O (stereo not drawn) [Example 253, 4-(3-(4-(1H-benzo[d]imidazole-2-carbonyl)phenoxy)pyrazin-2-yl)-1-methylpiperidin-2-one] |
| > 7.60 | CC(=O)N1CC(c2nccnc2Oc2ccc(C(=O)c3nc4ccccc4[nH]3)cc2)C1 [Example 250, 1-(3-(3-(4-(1H-benzo[d]imidazole-2-carbonyl)phenoxy)pyrazin-2-yl)azetidin-1-yl)ethanone] |
| > 7.60 | OCC1CCCCN1c1nccnc1Oc1ccc(Nc2nc3ccccc3s2)cc1 (stereo not drawn) [Example 97, (1-(3-(4-(benzo[d]thiazol-2-ylamino)phenoxy)pyrazin-2-yl)piperidin-2-yl)methanol] |
| > 7.60 | COC(=O)C1CCN(c2nccnc2Oc2ccc(Nc3nc4ccccc4s3)cc2)C1 (stereo not drawn) [Example 96, methyl 1-(3-(4-(benzo[d]thiazol-2-ylamino)phenoxy)pyrazin-2-yl)pyrrolidine-3-carboxylate] |
| > 7.60 | COC(=O)C1CN(c2nccnc2Oc2ccc(Nc3nc4ccccc4s3)cc2)C1 [Example 83, methyl 1-(3-(4-(benzo[d]thiazol-2-ylamino)phenoxy)pyrazin-2-yl)azetidine-3-carboxylate] |
| > 7.60 | COc1ncccc1-c1nccnc1Oc1ccc(C(=O)c2nc3ccccc3n2C)cc1 [Example 119, (4-(3-(2-methoxypyridin-3-yl)pyrazin-2-yloxy)phenyl)(1-methyl-1H-benzo[d]imidazol-2-yl)methanone] |
| 6.60 to 7.00 | CN(C)CCOc1nccnc1Oc1ccc(C(=O)c2nc3ccccc3[nH]2)cc1 [Example 174, (1H-benzo[d]imidazol-2-yl)(4-(3-(2-(dimethylamino)ethoxy)pyrazin-2-yloxy)phenyl)methanone] |
| > 7.60 | N#Cc1ccc(-c2nccnc2Oc2ccc(C(=O)c3nc4ccccc4[nH]3)cc2)cc1 [Example 108, 4-(3-(4-(1H-benzo[d]imidazole-2-carbonyl)phenoxy)pyrazin-2-yl)benzonitrile] |

| Molecule | pIC50 |
| --- | --- |
| (6-fluoro-1-methyl-1H-benzo[d]imidazol-2-yl)(4-(3-(tetrahydro-2H-pyran-4-yl)pyrazin-2-yloxy)phenyl)methanone and (5-fluoro-1-methyl-1H-benzo[d]imidazol-2-yl)(4-(3-(tetrahydro-2H-pyran-4-yl)pyrazin-2-yloxy)phenyl)methanone [Example 185] | > 7.60 |

same assay, conditions: PDE10 enzyme inhibition; average IC50 data for each compound; read-out: Average IC50

| Molecule | pIC50 |
| --- | --- |
| C[C@H](F)C(=O)N1CCC(c2nccnc2Oc2ccc(Nc3nc4ccccc4s3)cc2)CC1 (stereo in doubt) | 9.75 |
| O=C(c1ccc(Oc2nccnc2N2CC[C@H](O)C2)cc1)c1nc2ccccc2[nH]1 | 8.29 |
| CC(=O)N1CC[C@@H](c2nccnc2Oc2ccc(Nc3nc4ccccc4s3)cc2)C1 (stereo in doubt) | 8.74 |
| Cc1cc(-c2nccnc2Oc2ccc(C(=O)c3nc4ccccc4[nH]3)cc2)ccn1 [drawing 726] | 8.25 |
| COC[C@@H]1CCCN1c1nccnc1Oc1ccc(Nc2nc3ccccc3s2)cc1 [drawing 719] | 8.03 |
| CC(=O)O[C@@H](C)C(=O)N1CCC(c2nccnc2Oc2ccc(C(=O)c3nc4ccccc4[nH]3)cc2)CC1 (stereo in doubt) | 9.92 |
| COCC1CCCN(c2nccnc2Oc2ccc(Nc3nc4ccccc4s3)cc2)C1 (stereo not drawn) [drawing 736] | 7.73 |
| O=C(c1ccc(Oc2nccnc2Cl)cc1)c1nc2ncccc2[nH]1 | 6.77 |

Next, values leading:

| pIC50 | Molecule |
| --- | --- |
| 9.24 | O=C(c1ccc(Oc2nccnc2C(=O)NC2(Cc3ccccc3)CC2)cc1)c1nc2ccccc2[nH]1 [drawing 822] |
| 5.67 | O=C(c1ccc(Oc2nccnc2Oc2ccccc2)cc1)c1nc2ccccc2[nH]1 [drawing 850] |
| 6.61 | COC(=O)C1(c2nccnc2Oc2ccc(Nc3nc4ccccc4s3)cc2)CCN(C(=O)OC(C)(C)C)CC1 [drawing 869] |
| 9.74 | CC(=O)N1CCC(c2nccnc2Oc2ccc(C(=O)c3nc4ccccc4[nH]3)cc2)CC1 [drawing 889] |
| 7.44 | COc1cccc(-c2nccnc2Oc2ccc(C(=O)c3nc4ccccc4[nH]3)cc2)c1 [drawing 759] |
| 7.05 | O=C(c1ccc(Oc2nccnc2OCCN2CCOCC2)cc1)c1nc2ccccc2[nH]1 [drawing 855] |
| 8.49 | FCCN1CCC(c2nccnc2Oc2ccc(Nc3nc4ccccc4s3)cc2)CC1 [drawing 962] |
| 9.27 | COc1ccncc1-c1nccnc1Oc1ccc(C(=O)c2nc3ccccc3[nH]2)cc1 [drawing 990] |
| 7.77 | C[C@H]1CN(c2nccnc2Oc2ccc(Nc3nc4ccccc4s3)cc2)CC(=O)N1 [drawing 835] |
| 9.15 | CN(C)CC(=O)N1CCC(c2nccnc2Oc2ccc(Nc3nc4ccccc4s3)cc2)CC1 [drawing 996] |
| 8.09 | O=C(c1ccc(Oc2nccnc2OCCc2ccccn2)cc1)c1nc2ccccc2[nH]1 [drawing 860] |
| 7.98 | c1cncc(-c2nccnc2Oc2ccc(Nc3nc4ccccc4s3)cc2)c1 [drawing 823] |
| 8.54 | COc1ccccc1-c1nccnc1Oc1ccc(C(=O)c2nc3ccccc3[nH]2)cc1 [drawing 944] |
| 9.28 | COCC(=O)N1CCC(c2nccnc2Oc2ccc(C(=O)c3nc4ccccc4n3C)cc2)CC1 [drawing 982] |
| < 4.52 | Fc1ccc2sc(Nc3ccc(Oc4nccnc4Cl)cc3)nc2c1 [drawing 832] |
| 7.61 | O=C(c1ccc(Oc2nccnc2C(=O)NCCc2ccc(C(F)(F)F)cc2)cc1)c1nc2ccccc2[nH]1 [drawing 807] |
| 8.90 | O=C(c1ccc(Oc2nccnc2[C@@H]2CCC[C@@H](O)C2)cc1)c1nc2ccccc2[nH]1 (stereo in doubt) [drawing 898] |
| 8.69 | O=C(O)c1ccc(-c2nccnc2Oc2ccc(C(=O)c3nc4ccccc4[nH]3)cc2)cc1 [drawing 761] |
| 8.95 | O=C1CCC[C@@H](c2nccnc2Oc2ccc(Nc3nc4ccccc4s3)cc2)C1 [drawing 1002] |
| 8.60 | O=C(c1ccc(Oc2nccnc2C2CCN(CCF)CC2)cc1)c1nc2ccccc2[nH]1 [drawing 963] |
| 9.07 | CCOC(=O)[C@H]1CCCN(c2nccnc2Oc2ccc(C(=O)c3nc4ccccc4[nH]3)cc2)C1 [drawing 831] |
| 8.60 | N#CC1(c2nccnc2Oc2ccc(C(=O)c3nc4ccccc4[nH]3)cc2)CCOCC1 [drawing 868] |

same assay, conditions: PDE10 enzyme inhibition; chiral compounds separated from racemic mixtures; read-out: IC50

| pIC50 | Molecule |
| --- | --- |
| > 7.60 | N#C[C@@H]1CCN(c2nccnc2Oc2ccc(C(=O)c3nc4ccccc4[nH]3)cc2)C1 [Example 261, (R)-1-(3-(4-(1H-benzo[d]imidazole-2-carbonyl)phenoxy)pyrazin-2-yl)pyrrolidine-3-carbonitrile] |
